Results taken from patent US20100190849A1, “Novel Clerodanes and Methods for Repelling Arthropods” (priority 2006, published 2010).
Marks after values point to notes of the source that are not given here.

What was measured:
Test in all cases: Multiple-choice digging bioassay, fire ant workers
Format in all cases: in vivo
[1] = tested on: black imported fire ants, Solenopsis richteri Forel
Procedure: (§1) The repellency of the two terpenoids, callicarpenal and intermedeol, against workers of red imported fire ants, Solenopsis invicta Buren, black imported fire ants, Solenopsis rickeri Forel, and a hybrid of these two species was evaluated using multiple-choice digging bioassays (Tables 9 & 10). […] Callicarpenal and intermedeol were compared with octanoic acid, a known fire ant repellant, at the 25.00 ppm level using two-choice digging bioassays (FIGS. 3 and 4).
(§2) Ants: Two Solenopsis invicta colonies were collected in Sharkey County, Mississippi, and two Solenopsis richteri colonies were collected in Granada County, Mississippi. Two colonies of the hybrid (S. invicta×S. richteri) colony were collected in Sunflower County, Mississippi. Fire ant mounds were shoveled and placed in 19-L plastic buckets. The inside wall of the bucket was then coated with baby powder (Cumberland Swan Holdings, Inc., Smyrna, Tenn.) to prevent ant escape. Following the water-drip method developed by Bank et al. (Banks, W. A., et al., Techniques for collecting, rearing, and handling imported fire ants, USDA SEA AATS-S-21 (1981)), ants were separated and then placed in a 44.5×60.0×13.0 cm plastic tray with inside walls coated with Fluon® (Ag Fluoropolymers, Chadds Ford, Pa.). Distilled water and 15% (w/v) sucrose water solution in separated test tubes which were plugged with cotton balls were placed in the trays. Heliocoverpa zea (Boddie) and tobacco budworm, Heliothis virescens (Fabricius) pupae were used as food sources. Inside each tray were one to three 14.0×2.0 cm Petri dishes with 1.0 cm of hardener dental plaster (Castone®; Dentsply International Inc. York, Pa.) on the bottom. Also, in the center of the Petri dish was a 5.0-cm diameter brood chamber. Two 8-mm access holes were made on the wall of the petri dish above the dental plaster. The Petri dish lid was painted black (1302 Gloss Black Spray Enamel, Louisville, Ky.)to block the light. All colonies were maintained at 22-25° C.
(§3) Fire ant workers dug and removed sand from the tube through the entry hole. The differences in the amount of removed sand among treated and control tubes were used to evaluate chemical repellency. Four 2 ml centrifuge tubes were mounted under a 14.0×2.3 cm Petri dish using glue (Arrow Fastener Co., inc., Saddle Brook, N.J.). Tubes were 5.0 cm away from the center of the Petri dish and at equal distance from each other. A 3-mm diameter access hole was drilled for each centrifuge tube, which went through the bottom of the Petri dish and the cap of the tube. The inner side of the Petri dish was coated with Fluon. Three concentrations of a test compound and one control were set up in each apparatus. Six concentrations, including […], 6.25, 12.50, and 25.00 ppm, were tested in two separated bioassays for each species and hybrid; however three more concentrations of callicarpenal, 50.00, 100.00, and […], were tested for S. invicta. Sand (Premium Play Sand, Plassein International, Longview, Tex.) was first sieved through a ™35 U.S.A. standard testing sieve (Thomas Scientific, Swedesboro, N.J.) and then washed with distilled water and dried at 350° C. for 12 h. A 3 ml dichloromethane solution of callicarpenal or intermedeol was mixed with 30 g sand in an aluminum pan. The sand was stirred every 2 min to facilitate the evaporation of the solvent under a fume hood. After dichloromethane evaporated (5 minutes), 1.92 ml distilled water was added and mixed with sand. Sand in the control tube was treated only with dichloromethane. In each tube a mean (±SD) 2.78 g (±0.06 g) wet sand was added. There was no open space inside the tube. Locations of each concentration were randomized. Fifty fire ant workers were introduced into the center of the Petri Dish. The experiment was conducted at 22±0.8° C. (mean±SD) temperature and 45.4%±11.87% relative humidity. After 24 h, sand in each vial was collected, dried at 150° C. for at least 4 hour, and weighed. […]

[2] = tested on: red imported fire ants, Solenopsis invicta Buren
Procedure: as §1, §2, §3

[3] = tested on: hybrid (S. invicta×S. richteri)
Procedure: as §1, §2, §3

## C=C(C)C1CCC2(C)CCCC(C)(O)C2C1 [intermedeol, (4S,5S,7R,10S)-eudesm-11-en-4-ol]
[1]; S. richteri colony 1, Exp. 19, 0.75 ppm
  Sand removed (SE), mean weight of sand removed by ants 24 h after release: 0.10 (0.06) g
[1]; S. richteri colony 1, Exp. 19, 1.50 ppm
  Sand removed (SE), mean weight of sand removed by ants 24 h after release: 0.46 (0.18) g
[1]; S. richteri colony 1, Exp. 19, 3.15 ppm
  Sand removed (SE), mean weight of sand removed by ants 24 h after release: 0.24 (0.11) g
[1]; S. richteri colony 1, Exp. 20, 6.25 ppm
  Sand removed (SE), mean weight of sand removed by ants 24 h after release: 0.16 (0.10)* g
[1]; S. richteri colony 1, Exp. 20, 12.50 ppm
  Sand removed (SE), mean weight of sand removed by ants 24 h after release: 0.07 (0.04)* g
[1]; S. richteri colony 1, Exp. 20, 25.00 ppm
  Sand removed (SE), mean weight of sand removed by ants 24 h after release: 0.04 (0.01)* g
[1]; S. richteri colony 2, Exp. 21, 0.75 ppm
  Sand removed (SE), mean weight of sand removed by ants 24 h after release: 0.16 (0.12) g
[1]; S. richteri colony 2, Exp. 21, 1.50 ppm
  Sand removed (SE), mean weight of sand removed by ants 24 h after release: 0.26 (0.17) g
[1]; S. richteri colony 2, Exp. 21, 3.15 ppm
  Sand removed (SE), mean weight of sand removed by ants 24 h after release: 0.17 (0.16) g
[1]; S. richteri colony 2, Exp. 22, 6.25 ppm
  Sand removed (SE), mean weight of sand removed by ants 24 h after release: 0.02 (0.01)* g
[1]; S. richteri colony 2, Exp. 22, 12.50 ppm
  Sand removed (SE), mean weight of sand removed by ants 24 h after release: 0.14 (0.07)* g
[1]; S. richteri colony 2, Exp. 22, 25.00 ppm
  Sand removed (SE), mean weight of sand removed by ants 24 h after release: 0.02 (0.02)* g
[2]; S. invicta colony 1, Exp. 15, 0.75 ppm
  Sand removed (SE), mean weight of sand removed by ants 24 h after release: 0.56 (0.06) g
[2]; S. invicta colony 1, Exp. 15, 1.50 ppm
  Sand removed (SE), mean weight of sand removed by ants 24 h after release: 0.36 (0.09)* g
[2]; S. invicta colony 1, Exp. 15, 3.15 ppm
  Sand removed (SE), mean weight of sand removed by ants 24 h after release: 0.20 (0.06)* g
[2]; S. invicta colony 1, Exp. 16, 6.25 ppm
  Sand removed (SE), mean weight of sand removed by ants 24 h after release: 0.66 (0.15)* g
[2]; S. invicta colony 1, Exp. 16, 12.50 ppm
  Sand removed (SE), mean weight of sand removed by ants 24 h after release: 0.25 (0.13)* g
[2]; S. invicta colony 1, Exp. 16, 25.00 ppm
  Sand removed (SE), mean weight of sand removed by ants 24 h after release: 0.18 (0.09)* g
[2]; S. invicta colony 2, Exp. 17, 0.75 ppm
  Sand removed (SE), mean weight of sand removed by ants 24 h after release: 0.44 (0.10)* g
[2]; S. invicta colony 2, Exp. 17, 1.50 ppm
  Sand removed (SE), mean weight of sand removed by ants 24 h after release: 0.35 (0.08)* g
[2]; S. invicta colony 2, Exp. 17, 3.15 ppm
  Sand removed (SE), mean weight of sand removed by ants 24 h after release: 0.35 (0.12)* g
[2]; S. invicta colony 2, Exp. 18, 6.25 ppm
  Sand removed (SE), mean weight of sand removed by ants 24 h after release: 0.17 (0.08)* g
[2]; S. invicta colony 2, Exp. 18, 12.50 ppm
  Sand removed (SE), mean weight of sand removed by ants 24 h after release: 0.02 (0.01)* g
[2]; S. invicta colony 2, Exp. 18, 25.00 ppm
  Sand removed (SE), mean weight of sand removed by ants 24 h after release: 0.04 (0.01)* g
[3]; Hybrid colony 1, Exp. 23, 0.75 ppm
  Sand removed (SE), mean weight of sand removed by ants 24 h after release: 0.43 (0.15) g
[3]; Hybrid colony 1, Exp. 23, 1.50 ppm
  Sand removed (SE), mean weight of sand removed by ants 24 h after release: 0.10 (0.03)* g
[3]; Hybrid colony 1, Exp. 23, 3.15 ppm
  Sand removed (SE), mean weight of sand removed by ants 24 h after release: 0.10 (0.03)* g
[3]; Hybrid colony 1, Exp. 24, 6.25 ppm
  Sand removed (SE), mean weight of sand removed by ants 24 h after release: 0.45 (0.08)* g
[3]; Hybrid colony 1, Exp. 24, 12.50 ppm
  Sand removed (SE), mean weight of sand removed by ants 24 h after release: 0.37 (0.04)* g
[3]; Hybrid colony 1, Exp. 24, 25.00 ppm
  Sand removed (SE), mean weight of sand removed by ants 24 h after release: 0.20 (0.09)* g
[3]; Hybrid colony 2, Exp. 25, 0.75 ppm
  Sand removed (SE), mean weight of sand removed by ants 24 h after release: 0.34 (0.14) g
[3]; Hybrid colony 2, Exp. 25, 1.50 ppm
  Sand removed (SE), mean weight of sand removed by ants 24 h after release: 0.25 (0.10) g
[3]; Hybrid colony 2, Exp. 25, 3.15 ppm
  Sand removed (SE), mean weight of sand removed by ants 24 h after release: 0.28 (0.09) g
[3]; Hybrid colony 2, Exp. 26, 6.25 ppm
  Sand removed (SE), mean weight of sand removed by ants 24 h after release: 0.20 (0.08)* g
[3]; Hybrid colony 2, Exp. 26, 12.50 ppm
  Sand removed (SE), mean weight of sand removed by ants 24 h after release: 0.10 (0.04)* g
[3]; Hybrid colony 2, Exp. 26, 25.00 ppm
  Sand removed (SE), mean weight of sand removed by ants 24 h after release: 0.04 (0.01)* g
